PMC6191541, “Small-Molecule Acetylation Controls the Degradation of Benzoate and Photosynthesis in Rhodopseudomonas palustris” (mBio, 2018)

Assays:
MmBadL = target: T1, MmBadL (Paramagnetospirillum magneticum, UniProt Q2W1S9); assay: [[…]-14C]acetyl-CoA transfer, TLC phosphor imaging; format: biochemical; conditions: co-substrate acetyl-CoA
T1 construct: gene amb3392; plasmid pMmBadL2, expressed in E. coli C41(lambda-DE3) pka12::kan+, purified; tag details in Text S1

GmBadL = target: T2, GmBadL (Geobacter metallireducens, UniProt Q39TU9); assay: [[…]-14C]acetyl-CoA transfer, TLC phosphor imaging; format: biochemical; conditions: co-substrate acetyl-CoA
T2 construct: gene Gmet_2096; plasmid pGmBadL1, expressed in E. coli C41(lambda-DE3) pka12::kan+, purified; tag details in Text S1

BadM = target: T3, BadM (Rhodopseudomonas palustris, UniProt O07465); assay: EMSA with 6-FAM-labelled badDEFGAB promoter probe; conditions: 72 nM BadM, 12 nM probe; 10 mM compound, blocks DNA binding; no effect at 5 mM
T3 construct: plasmid pRpBadM8, expressed in E. coli C41(lambda-DE3) pka12::kan+, purified; tag details in Text S1

[1] = target: T4, BadM (Rhodopseudomonas palustris) (UniProt O07465); assay: EMSA; conditions: 25 µL; Tris 20 mM pH 7.5 (at 25°C), KCl 50 mM, DTT 1 mM, glycerol (rest of buffer not in the material); probe 12 nM (0.303 pmol), BadM 72 nM (1.8 pmol) …
T4 sequence: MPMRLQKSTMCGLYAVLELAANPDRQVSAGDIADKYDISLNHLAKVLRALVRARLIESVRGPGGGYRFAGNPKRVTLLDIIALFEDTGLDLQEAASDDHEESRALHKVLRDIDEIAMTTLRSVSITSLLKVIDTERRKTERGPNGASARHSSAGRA

T1 sequence (Q2W1S9 entry or part of it): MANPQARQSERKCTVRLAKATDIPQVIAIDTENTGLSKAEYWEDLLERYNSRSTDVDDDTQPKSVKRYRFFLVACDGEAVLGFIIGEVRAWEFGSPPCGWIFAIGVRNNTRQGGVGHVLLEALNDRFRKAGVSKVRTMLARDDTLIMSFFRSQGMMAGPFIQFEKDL
T2 sequence (Q39TU9 entry or part of it): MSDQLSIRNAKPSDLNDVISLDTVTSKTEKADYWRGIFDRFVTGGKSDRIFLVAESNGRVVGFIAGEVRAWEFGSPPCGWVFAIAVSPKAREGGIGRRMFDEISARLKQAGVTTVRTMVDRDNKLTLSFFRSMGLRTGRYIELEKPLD

## Nc1ccc(C(=O)O)cc1 [4-ABA, 4-aminobenzoate]
MmBadL
  [1-14C]acetyl-CoA transfer, TLC phosphor imaging: MmBadL and GmBadL acetylated 4-aminobenzoate producing 4-acetamidobenzoate
GmBadL
  [1-14C]acetyl-CoA transfer, TLC phosphor imaging: MmBadL and GmBadL acetylated 4-aminobenzoate producing 4-acetamidobenzoate

## CC(=O)Nc1ccccc1C(=O)O [2-ABA^Ac, 2-acetamidobenzoate]
BadM
  EMSA with 6-FAM-labelled badDEFGAB promoter probe: addition of 2-acetamidobenzoate blocked binding of BadM to its DNA target

## GTGATGCGGCCTGTCGAGCATGCCGGTCGTCCTCCCTGCCCGGCGGCTCTGCCGGGTCGCGCTGCCGGCCATTTTCCGGCCCAGCGATTTAAATGTAATCTAGTATCGGAATGCGATAATTAATTTGATGCGGATCAAATTTGGCAAAGGCACAGCCGACACGGGCCGACGCCGGCTCGTAGTCGGGAGGCTCAGATATCGATCGCGATCTT (double strand) [badDEFGAB promoter / badCD intergenic probe]
[1]
  binding: binds
